Laboratory results: ChEMBL document CHEMBL1145182, “Molecular dynamics simulations of the TEM-1 beta-lactamase complexed with cephalothin” (J Med Chem, 2005)

Target: Beta-lactamase TEM (Escherichia coli) (UniProt P62593)
Assay: Rate of catalysis against TEM-1 beta-lactamase

Chain of Beta-lactamase TEM (Escherichia coli) (P62593 whole entry): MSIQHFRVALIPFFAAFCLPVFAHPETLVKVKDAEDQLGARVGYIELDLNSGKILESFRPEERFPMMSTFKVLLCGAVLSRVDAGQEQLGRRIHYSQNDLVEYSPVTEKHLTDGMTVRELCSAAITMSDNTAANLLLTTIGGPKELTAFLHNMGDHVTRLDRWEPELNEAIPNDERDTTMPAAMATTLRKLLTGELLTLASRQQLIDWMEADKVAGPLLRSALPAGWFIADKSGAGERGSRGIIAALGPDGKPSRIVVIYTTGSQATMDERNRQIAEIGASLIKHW

Row | Compound | K cat
1 | CC(=O)OCC1=C(C(=O)O)N2C(=O)[C@@H](NC(=O)Cc3cccs3)[C@H]2SC1 | 115 1/S
2 | CC1(C)S[C@@H]2[C@H](NC(=O)Cc3ccccc3)C(=O)N2[C@H]1C(=O)O | 1280 1/S
